# Test results as given in US20230108906A1, “SUBSTITUTED BICYCLIC AND TRICYCLIC UREAS AND AMIDES, ANALOGUES THEREOF, AND METHODS USING SAME” (Arbutus Biopharma Corporation, priority 2019, published 2023).
# Tested on: HBV rcDNA in HepDE19 cells
# Assay: HepDE19 assay with bDNA quantitation of HBV rcDNA
# Format: cell-based, hepatitis B virus (HBV)
# Conditions: Hepatitis B virus, HepDE19, 168 h, inhibition of rcDNA formation in HepDE19 cells (HepG2 derived), Tet-free medium, 7 day incubation, Quantigene 2.0 bDNA readout, top concentration 25 μM; read-out: DE-19bDNA EC50
# In short: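 Cytotoxicity run on replicate plates (5,000 cells/well, 4 days, ATP luminescence, CC50), while antiviral plates (50,000 cells/well) received compound for 7 days after tetracycline withdrawal to induce HBV replication. Top dose 25 μM, 8 points, 0.5% DMSO; rcDNA by branched-DNA assay, % inhibition fitted (4-parameter) for EC50 and EC90.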
row,SMILES,EC50 [nM]
1,"CN(C(=O)Nc1ccc(F)c(Cl)c1)C1CCCc2[nH]c(=O)cc(C(F)(F)F)c21 (stereo not drawn) [Compound 2, 3-(3-Chloro-4-fluorophenyl)-1-methyl-1-(2-oxo-4-(trifluoromethyl)-1,2,5,6,7,8-hexahydroquinolin-5-yl)urea]",1500
2,"O=C(Nc1ccc(F)c(Cl)c1)N(CCCO)C1CCCc2[nH]c(=O)cc(C(F)(F)F)c21 (stereo not drawn) [Compound 3, 3-(3-Chloro-4-fluorophenyl)-1-(3-hydroxypropyl)-1-(2-oxo-4-(trifluoromethyl)-1,2,5,6,7,8-hexahydroquinolin-5-yl)urea]",1700
3,"CC(C)CN(C(=O)Nc1ccc(F)c(Cl)c1)C1CCc2[nH]c(=O)cc(C(F)(F)F)c21 (stereo not drawn) [Compound 4, 3-(3-Chloro-4-fluorophenyl)-1-isobutyl-1-(2-oxo-4-(trifluoromethyl)-2,5,6,7-tetrahydro-1H-cyclopenta[b]pyridin-5-yl)urea]",910
4,"CC(C)CN(C(=O)Nc1ccc(F)c(F)c1)C1CCc2[nH]c(=O)cc(C(F)(F)F)c21 (stereo not drawn) [Compound 5, 3-(3,4-Difluorophenyl)-1-isobutyl-1-(2-oxo-4-(trifluoromethyl)-2,5,6,7-tetrahydro-1H-cyclopenta[b]pyridin-5-yl)urea]",1100
5,"O=C(Nc1ccc(F)c(Cl)c1)N(CCCO)C1CCCc2[nH]c(=O)c3ccccc3c21 (stereo not drawn) [Compound 7, 3-(3-Chloro-4-fluorophenyl)-1-(3-hydroxypropyl)-1-(6-oxo-1,2,3,4,5,6-hexahydrophenanthridin-1-yl)urea]",750
6,"CC(C)CN(C(=O)Nc1ccc(F)c(Cl)c1)C1CCCc2[nH]c(=O)c3ccccc3c21 (stereo not drawn) [Compound 8, 3-(3-Chloro-4-fluorophenyl)-1-isobutyl-1-(6-oxo-1,2,3,4,5,6-hexahydrophenanthridin-1-yl)urea]",470
7,"CN(C(=O)Nc1ccc(F)c(Cl)c1)C1CCCc2[nH]c(=O)c3cc(F)ccc3c21 (stereo not drawn) [Compound 9, 3-(3-Chloro-4-fluorophenyl)-1-(8-fluoro-6-oxo-1,2,3,4,5,6-hexahydrophenanthridin-1-yl)-1-methylurea]",30
8,"CC(C)CN(C(=O)Nc1ccc(F)c(Cl)c1)C1CCCc2[nH]c(=O)c3cc(F)ccc3c21 (stereo not drawn) [Compound 10, 3-(3-Chloro-4-fluorophenyl)-1-(8-fluoro-6-oxo-1,2,3,4,5,6-hexahydrophenanthridin-1-yl)-1-isobutylurea]",60
9,"O=C(Nc1ccc(F)c(Cl)c1)N(CCCO)C1CCCc2[nH]c(=O)c3cc(F)ccc3c21 (stereo not drawn) [Compound 11, 3-(3-Chloro-4-fluorophenyl)-1-(8-fluoro-6-oxo-1,2,3,4,5,6-hexahydrophenanthridin-1-yl)-1-(3-hydroxypropyl)urea]",60
10,"CN(C(=O)Nc1ccc(F)c(Cl)c1)C1CCc2[nH]c(=O)c3ccccc3c21 (stereo not drawn) [Compound 12, 3-(3-Chloro-4-fluorophenyl)-1-methyl-1-(5-oxo-2,3,4,5-tetrahydro-1H-cyclopenta[c]isoquinolin-1-yl)urea]",90
11,"CC(C)CN(C(=O)Nc1ccc(F)c(Cl)c1)C1CCc2[nH]c(=O)c3ccccc3c21 (stereo not drawn) [Compound 13, 3-(3-Chloro-4-fluorophenyl)-1-isobutyl-1-(5-oxo-2,3,4,5-tetrahydro-1H-cyclopenta[c]isoquinolin-1-yl)urea]",1300
12,"O=C(Nc1ccc(F)c(Cl)c1)N(CCCO)C1CCc2[nH]c(=O)c3ccccc3c21 (stereo not drawn) [Compound 14, 3-(3-Chloro-4-fluorophenyl)-1-(3-hydroxypropyl)-1-(5-oxo-2,3,4,5-tetrahydro-1H-cyclopenta[c]isoquinolin-1-yl)urea]",100
13,"CN(C(=O)Nc1ccc(F)cc1)C1CCCc2[nH]c(=O)c3cc(F)c(F)cc3c21 (stereo not drawn) [Compound 19, 1-(8,9-Difluoro-6-oxo-1,2,3,4,5,6-hexahydrophenanthridin-1-yl)-3-(4-fluorophenyl)-1-methylurea]",160
14,"CN(C(=O)Nc1ccc(F)c(Cl)c1)C1CCCc2[nH]c(=O)c3cc(F)cc(F)c3c21 (stereo not drawn) [Compound 20, 3-(3-Chloro-4-fluorophenyl)-1-(8,10-difluoro-6-oxo-1,2,3,4,5,6-hexahydrophenanthridin-1-yl)-1-methylurea]",510
15,"CN(C(=O)Nc1ccc(F)c(Cl)c1)C1CCCCc2[nH]c(=O)c3ccccc3c21 (stereo not drawn) [Compound 21, 3-(3-Chloro-4-fluorophenyl)-1-methyl-1-(5-oxo-6,7,8,9,10,11-hexahydro-5H-cyclohepta[c]isoquinolin-11-yl)urea]",150
16,"O=C(Nc1ccc(F)c(Cl)c1)N(CCCO)C1CCCCc2[nH]c(=O)c3ccccc3c21 (stereo not drawn) [Compound 22, 3-(3-Chloro-4-fluorophenyl)-1-(3-hydroxypropyl)-1-(5-oxo-6,7,8,9,10,11-hexahydro-5H-cyclohepta[c]isoquinolin-11-yl)urea]",600

row,SMILES,EC50 [nM]
1,"CN(C(=O)Nc1ccc(F)c(Cl)c1)C1COCc2[nH]c(=O)c3cc(F)cc(F)c3c21 (stereo not drawn) [Compound 25, 3-(3-Chloro-4-fluorophenyl)-1-(8,10-difluoro-6-oxo-1,4,5,6-tetrahydro-2H-pyrano[3,4-c]isoquinolin-1-yl)-1-methylurea]",290
2,"CN(C(=O)Nc1ccc(F)c(Cl)c1)C1CC(C)(C)Cc2[nH]c(=O)c3ccccc3c21 (stereo not drawn) [Compound 27, 3-(3-Chloro-4-fluorophenyl)-1-(3,3-dimethyl-6-oxo-1,2,3,4,5,6-hexahydrophenanthridin-1-yl)-1-methylurea]",12000
3,"CN(C(=O)Nc1ccc(F)c(Cl)c1)C1CCCc2[nH]c(=O)c3c(F)c(F)ccc3c21 (stereo not drawn) [Compound 28, 3-(3-Chloro-4-fluorophenyl)-1-(7,8-difluoro-6-oxo-1,2,3,4,5,6-hexahydrophenanthridin-1-yl)-1-methylurea]",440
4,"CN(C(=O)Nc1cc(F)cc(Cl)c1)C1COCc2[nH]c(=O)c3ccccc3c21 (stereo not drawn) [Compound 29, 3-(3-Chloro-5-fluorophenyl)-1-methyl-1-(6-oxo-1,4,5,6-tetrahydro-2H-pyrano[3,4-c]isoquinolin-1-yl)urea]",120
5,"CC(C)CN(C(=O)Nc1ccc(F)c(Cl)c1)C1COCc2[nH]c(=O)c3ccccc3c21 (stereo not drawn) [Compound 30, 3-(3-Chloro-4-fluorophenyl)-1-isobutyl-1-(6-oxo-1,4,5,6-tetrahydro-2H-pyrano[3,4-c]isoquinolin-1-yl)urea]",20
6,"CN(C(=O)Nc1ccc(F)c(Cl)c1)C1CCCc2c1c1ccccc1c(=O)n2C (stereo not drawn) [Compound 31, 3-(3-Chloro-4-fluorophenyl)-1-methyl-1-(5-methyl-6-oxo-1,2,3,4,5,6-hexahydrophenanthridin-1-yl)urea]",260
7,"CN(C(=O)Nc1ccc(F)c(F)c1)C1CCCc2[nH]c(=O)c3cc(F)ccc3c21 (stereo not drawn) [Compound 32, 3-(3,4-Difluorophenyl)-1-(8-fluoro-6-oxo-1,2,3,4,5,6-hexahydrophenanthridin-1-yl)-1-methylurea]",110
8,"CN(C(=O)Nc1cc(F)c(F)c(F)c1)C1CCCc2[nH]c(=O)c3cc(F)ccc3c21 (stereo not drawn) [Compound 33, 1-(8-Fluoro-6-oxo-1,2,3,4,5,6-hexahydrophenanthridin-1-yl)-1-methyl-3-(3,4,5-trifluorophenyl)urea]",100
9,"COc1nc2c(c3ccccc13)C(N(C)C(=O)Nc1ccc(F)c(Cl)c1)CCC2 (stereo not drawn) [Compound 34, 3-(3-Chloro-4-fluorophenyl)-1-(6-methoxy-1,2,3,4-tetrahydrophenanthridin-1-yl)-1-methylurea]",1800
10,"CN(C(=O)Nc1ccc(F)c(Cl)c1)C1COCc2[nH]c(=O)c3c(F)c(F)ccc3c21 (stereo not drawn) [Compound 35, 3-(3-Chloro-4-fluorophenyl)-1-(7,8-difluoro-6-oxo-1,4,5,6-tetrahydro-2H-pyrano[3,4-c]isoquinolin-1-yl)-1-methylurea]",190
11,"CC(C)CN(C(=O)Nc1ccc(F)c(Cl)c1)C1COCc2[nH]c(=O)c3cc(F)ccc3c21 (stereo not drawn) [Compound 43, 3-(3-Chloro-4-fluorophenyl)-1-(8-fluoro-6-oxo-1,4,5,6-tetrahydro-2H-pyrano[3,4-c]isoquinolin-1-yl)-1-isobutylurea]",10
12,"CCN(C(=O)Nc1ccc(F)c(Cl)c1)C1COCc2[nH]c(=O)c3cc(F)ccc3c21 (stereo not drawn) [Compound 44, 3-(3-Chloro-4-fluorophenyl)-1-ethyl-1-(8-fluoro-6-oxo-1,4,5,6-tetrahydro-2H-pyrano[3,4-c]isoquinolin-1-yl)urea]",10
13,"CN(C(=O)Nc1ccc(F)c(Cl)c1)C1COCc2[nH]c(=O)c3cc(Cl)ccc3c21 (stereo not drawn) [Compound 55, 3-(3-Chloro-4-fluorophenyl)-1-(8-chloro-6-oxo-1,4,5,6-tetrahydro-2H-pyrano[3,4-c]isoquinolin-1-yl)-1-methylurea]",50
14,"CCN(C(=O)Nc1ccc(F)c(Cl)c1)C1COCc2[nH]c(=O)c3cc(Cl)ccc3c21 (stereo not drawn) [Compound 56, 3-(3-Chloro-4-fluorophenyl)-1-(8-chloro-6-oxo-1,4,5,6-tetrahydro-2H-pyrano[3,4-c]isoquinolin-1-yl)-1-ethylurea]",50
15,"Cc1cc(NC(=O)N(C)C2COCc3[nH]c(=O)c4cc(F)ccc4c32)ccc1F (stereo not drawn) [Compound 57, 3-(4-Fluoro-3-methylphenyl)-1-(8-fluoro-6-oxo-1,4,5,6-tetrahydro-2H-pyrano[3,4-c]isoquinolin-1-yl)-1-methylurea]",10

# Same assay, conditions: inhibition of rcDNA formation in HepDE19 cells (HepG2 derived), Tet-free medium, 7 day incubation, Quantigene 2.0 bDNA readout, top concentration 25 μM; read-out: DE-19bDNA EC50
row,SMILES,EC50 [nM]
1,"CN(C(=O)Nc1ccc(F)c(Cl)c1)C1CCCc2[nH]c(=O)c3cc(F)c(F)cc3c21 (stereo not drawn) [Compound 38, 3-(3-Chloro-4-fluorophenyl)-1-(8,9-difluoro-6-oxo-1,2,3,4,5,6-hexahydrophenanthridin-1-yl)-1-methylurea]",1000
2,"CN(C(=O)Nc1ccc(F)c(Cl)c1)C1CCCc2[nH]c(=O)c3cc(F)c(F)cc3c21 (stereo not drawn) [Compound 39, 3-(3-Chloro-4-fluorophenyl)-1-(8,9-difluoro-6-oxo-1,2,3,4,5,6-hexahydrophenanthridin-1-yl)-1-methylurea]",10
